The source made the active and inactive calls.
Key:
fMet-Leu-Phe receptor = biological target: T1, fMet-Leu-Phe receptor (Homo sapiens, UniProt P21462); test: FPR ligands, dose response (AID 519); assay type: functional
T1 sequence (P21462 whole entry): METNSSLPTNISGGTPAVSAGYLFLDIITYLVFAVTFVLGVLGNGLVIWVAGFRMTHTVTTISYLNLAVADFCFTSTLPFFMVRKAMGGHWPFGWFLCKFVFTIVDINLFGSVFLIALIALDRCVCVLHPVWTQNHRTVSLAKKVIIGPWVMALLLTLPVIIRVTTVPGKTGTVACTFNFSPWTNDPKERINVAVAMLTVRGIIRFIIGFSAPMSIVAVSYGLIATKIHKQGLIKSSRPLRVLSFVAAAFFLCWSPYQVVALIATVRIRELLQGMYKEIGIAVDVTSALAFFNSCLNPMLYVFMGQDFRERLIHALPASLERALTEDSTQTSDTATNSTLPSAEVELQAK

cells = assay type: functional
BJ [1] = test: cytotoxicity toward BJ-TERT fibroblasts, dose response, cell-based, RAS-independent, luminescence (AID 1933); assay type: functional; conditions: Homo sapiens
BJ [2] = test: cells; assay type: functional, cell-based; conditions: Homo sapiens
BJ [3] = test: cytotoxicity toward BJ-TERT-LT-ST fibroblasts, dose response, cell-based, RAS-independent, luminescence (AID 1935); assay type: functional; conditions: Homo sapiens;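 note: BJ fibroblasts immortalized with TERT plus LT and ST oncogenes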
BJ [4] = test: cytotoxicity toward Ras-transformed BJeLR fibroblasts, dose response, cell-based, alamar blue fluorescence, cherrypicked samples (AID 2631); assay type: functional; conditions: Homo sapiens;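 note: confirmatory dose-response assay in RAS-dependent BJ fibroblasts engineered with TERT, LT and ST, with cytotoxicity read by fluorescence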
[5] = cytotoxicity toward DRD oncogenic fibroblasts, dose response, cell-based, non-viral oncogenic, luminescence (AID 1934); assay type: functional; conditions: Homo sapiens
Cytochrome P450 2C9 = Cytochrome P450 2C9 (Homo sapiens, UniProt P11712)
Cytochrome P450 3A4 [6] = biological target: T2, Cytochrome P450 3A4 (Homo sapiens, UniProt P08684);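 note: CYP3A4 tested as one member of a cytochrome P450 panel screen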
T2 sequence (P08684 whole entry): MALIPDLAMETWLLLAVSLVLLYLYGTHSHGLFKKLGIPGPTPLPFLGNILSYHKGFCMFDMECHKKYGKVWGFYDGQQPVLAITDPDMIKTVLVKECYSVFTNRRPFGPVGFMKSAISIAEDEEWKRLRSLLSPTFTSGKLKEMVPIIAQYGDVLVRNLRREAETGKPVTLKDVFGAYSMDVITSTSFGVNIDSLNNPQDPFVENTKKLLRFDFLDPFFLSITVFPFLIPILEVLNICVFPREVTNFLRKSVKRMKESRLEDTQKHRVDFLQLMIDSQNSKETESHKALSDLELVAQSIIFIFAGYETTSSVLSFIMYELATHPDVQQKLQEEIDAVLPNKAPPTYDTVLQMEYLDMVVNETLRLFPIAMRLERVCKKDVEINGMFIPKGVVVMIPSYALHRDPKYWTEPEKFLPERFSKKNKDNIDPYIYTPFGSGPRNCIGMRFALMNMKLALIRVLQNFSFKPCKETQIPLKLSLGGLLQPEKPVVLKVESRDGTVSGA

[7] = biological target: T3, Alkaline phosphatase, tissue-nonspecific isozyme (Homo sapiens, UniProt P05186); test: human TNAP enzyme inhibitors, SAR follow-up, biochemical, luminescent, dose response (AID 1056)
T3 sequence (P05186 whole entry): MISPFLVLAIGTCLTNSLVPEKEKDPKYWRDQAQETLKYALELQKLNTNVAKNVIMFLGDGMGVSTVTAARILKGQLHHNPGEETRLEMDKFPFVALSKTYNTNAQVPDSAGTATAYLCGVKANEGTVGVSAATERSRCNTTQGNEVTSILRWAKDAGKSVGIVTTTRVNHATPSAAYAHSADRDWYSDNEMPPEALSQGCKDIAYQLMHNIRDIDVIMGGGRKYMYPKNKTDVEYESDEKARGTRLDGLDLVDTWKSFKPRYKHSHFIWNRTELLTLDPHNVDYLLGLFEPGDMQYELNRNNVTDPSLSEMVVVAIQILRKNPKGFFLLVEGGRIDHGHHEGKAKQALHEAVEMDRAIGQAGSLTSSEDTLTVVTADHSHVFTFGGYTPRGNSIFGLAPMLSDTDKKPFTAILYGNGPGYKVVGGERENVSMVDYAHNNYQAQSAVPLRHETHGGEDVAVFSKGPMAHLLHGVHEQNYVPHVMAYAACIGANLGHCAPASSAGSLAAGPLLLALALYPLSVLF

[8] = biological target: Glyceraldehyde-3-phosphate dehydrogenase (Homo sapiens, UniProt P04406)
Streptokinase A = biological target: T4, Streptokinase A (Streptococcus pyogenes serotype M1, UniProt P10520); test: S. pyogenes streptokinase expression inhibitors, potency, dose response, plasminogen activation absorbance, OD405 (AID 1914); assay type: functional, Streptococcus pyogenes M1 GAS;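 note: secreted streptokinase activity via plasminogen activation per viability signal from cell pellet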
T4 sequence (P10520 whole entry): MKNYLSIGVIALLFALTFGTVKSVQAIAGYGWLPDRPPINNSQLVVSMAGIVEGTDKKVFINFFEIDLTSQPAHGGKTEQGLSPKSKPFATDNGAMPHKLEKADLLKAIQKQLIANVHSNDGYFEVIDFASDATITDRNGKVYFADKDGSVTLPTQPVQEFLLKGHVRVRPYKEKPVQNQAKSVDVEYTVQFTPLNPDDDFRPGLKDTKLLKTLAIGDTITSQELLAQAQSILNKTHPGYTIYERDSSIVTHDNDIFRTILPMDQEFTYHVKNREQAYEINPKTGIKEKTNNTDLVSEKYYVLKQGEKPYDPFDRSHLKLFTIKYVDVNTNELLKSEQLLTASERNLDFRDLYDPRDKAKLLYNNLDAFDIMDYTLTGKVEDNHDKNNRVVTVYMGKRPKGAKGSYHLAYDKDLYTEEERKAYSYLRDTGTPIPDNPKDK

Streptococcus = test: Group A Streptococcus viability loss, dose response, counter-screen for streptokinase expression inhibitor project, luminescence, BacTiterGlo (AID 1915); assay type: functional, organism-based;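 note: potency for reduction of bacterial viability or growth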
Cytochrome P450 2D6 = Cytochrome P450 2D6 (Homo sapiens, UniProt P10635);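 note: CYP2D6 member of a cytochrome P450 panel assay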
[9] = tested on: Streptococcus sp. 'group A'; test: growth inhibition of control SK(-) GAS strain, dose response, counter-screen for streptokinase expression inhibitor project, luminescence, kanamycin, BacTiterGlo, confirmation (AID 1900); assay type: functional, organism-based
[10] = biological target: Peroxisome proliferator-activated receptor gamma/Nuclear receptor coactivator 2 (Homo sapiens, UniProt P37231); test: (§1) TR-FRET dose response biochemical High Throughput Screening assay for agonists of the steroid receptor coactivator 2 (SRC-2) recruitment by the peroxisome proliferator-activated receptor gamma (PPAR gamma): non-selective agonists. [Related pubchem assays: 1297, 1032 ]; assay type: functional
Sequence of Peroxisome proliferator-activated receptor gamma/Nuclear receptor coactivator 2 (P37231 whole entry): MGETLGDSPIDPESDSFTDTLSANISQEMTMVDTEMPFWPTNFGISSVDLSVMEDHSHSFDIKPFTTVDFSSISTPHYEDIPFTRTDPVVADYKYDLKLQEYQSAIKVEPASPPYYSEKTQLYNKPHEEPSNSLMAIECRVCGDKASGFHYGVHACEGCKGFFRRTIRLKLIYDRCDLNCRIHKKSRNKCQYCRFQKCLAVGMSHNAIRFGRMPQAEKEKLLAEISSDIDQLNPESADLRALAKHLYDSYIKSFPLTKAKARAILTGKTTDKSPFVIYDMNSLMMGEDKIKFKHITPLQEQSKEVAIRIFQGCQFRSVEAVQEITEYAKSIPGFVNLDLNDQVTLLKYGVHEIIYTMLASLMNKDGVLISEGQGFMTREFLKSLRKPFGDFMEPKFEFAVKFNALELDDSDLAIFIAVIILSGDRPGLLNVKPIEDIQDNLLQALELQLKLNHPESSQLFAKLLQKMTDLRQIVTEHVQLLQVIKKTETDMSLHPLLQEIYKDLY
Sequence of Peroxisome proliferator-activated receptor gamma/Nuclear receptor coactivator 2 (Q15596 whole entry, further chain): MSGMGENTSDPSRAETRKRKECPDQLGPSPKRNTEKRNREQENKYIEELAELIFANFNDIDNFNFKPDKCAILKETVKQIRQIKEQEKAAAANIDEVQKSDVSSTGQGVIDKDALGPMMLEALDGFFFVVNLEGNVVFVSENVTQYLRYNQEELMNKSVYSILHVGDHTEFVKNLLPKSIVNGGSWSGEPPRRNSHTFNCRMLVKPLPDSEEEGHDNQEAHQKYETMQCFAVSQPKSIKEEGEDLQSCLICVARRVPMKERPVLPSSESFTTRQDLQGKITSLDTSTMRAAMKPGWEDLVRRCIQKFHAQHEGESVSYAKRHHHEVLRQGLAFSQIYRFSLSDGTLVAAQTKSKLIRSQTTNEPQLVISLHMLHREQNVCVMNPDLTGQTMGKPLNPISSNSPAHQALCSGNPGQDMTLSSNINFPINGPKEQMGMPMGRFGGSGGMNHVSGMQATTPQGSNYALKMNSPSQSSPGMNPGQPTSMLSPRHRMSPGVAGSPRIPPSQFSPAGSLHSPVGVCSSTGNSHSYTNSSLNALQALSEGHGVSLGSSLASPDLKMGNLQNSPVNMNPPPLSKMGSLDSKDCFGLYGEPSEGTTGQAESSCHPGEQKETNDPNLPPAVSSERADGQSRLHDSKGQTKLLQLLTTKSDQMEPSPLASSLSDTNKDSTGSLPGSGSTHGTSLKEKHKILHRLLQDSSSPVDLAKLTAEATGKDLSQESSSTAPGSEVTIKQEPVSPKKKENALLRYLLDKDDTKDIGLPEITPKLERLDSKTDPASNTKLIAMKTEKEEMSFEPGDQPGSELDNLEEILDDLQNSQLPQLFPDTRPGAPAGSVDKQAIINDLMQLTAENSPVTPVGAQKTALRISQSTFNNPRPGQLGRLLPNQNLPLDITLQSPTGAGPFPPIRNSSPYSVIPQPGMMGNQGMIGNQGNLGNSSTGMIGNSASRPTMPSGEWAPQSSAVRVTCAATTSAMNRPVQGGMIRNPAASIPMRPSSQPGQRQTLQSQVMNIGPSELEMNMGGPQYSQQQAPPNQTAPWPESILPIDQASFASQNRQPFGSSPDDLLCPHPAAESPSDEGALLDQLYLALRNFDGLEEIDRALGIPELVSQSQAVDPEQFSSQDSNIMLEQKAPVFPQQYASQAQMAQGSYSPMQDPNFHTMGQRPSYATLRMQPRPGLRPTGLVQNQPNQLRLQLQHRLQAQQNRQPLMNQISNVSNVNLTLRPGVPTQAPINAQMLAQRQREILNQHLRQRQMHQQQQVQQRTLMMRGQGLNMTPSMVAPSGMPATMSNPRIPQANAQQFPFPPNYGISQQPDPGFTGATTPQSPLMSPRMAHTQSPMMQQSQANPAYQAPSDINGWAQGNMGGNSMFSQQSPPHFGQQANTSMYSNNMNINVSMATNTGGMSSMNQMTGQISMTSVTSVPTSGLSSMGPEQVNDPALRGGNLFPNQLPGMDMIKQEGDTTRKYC

[11] = biological target: Peroxisome proliferator-activated receptor gamma/Nuclear receptor coactivator 3 (Homo sapiens, UniProt P37231); test: as §1, with “3 (SRC-3)” for “2 (SRC-2)”, “1301 (Confirmation screen.), 1048 (Primary screen.)]” for “1297, 1032 ]”; assay type: functional
Sequence of Peroxisome proliferator-activated receptor gamma/Nuclear receptor coactivator 3 (P37231 whole entry): as the sequence (P37231 whole entry) above
Sequence of Peroxisome proliferator-activated receptor gamma/Nuclear receptor coactivator 3 (Q9Y6Q9 whole entry, further chain): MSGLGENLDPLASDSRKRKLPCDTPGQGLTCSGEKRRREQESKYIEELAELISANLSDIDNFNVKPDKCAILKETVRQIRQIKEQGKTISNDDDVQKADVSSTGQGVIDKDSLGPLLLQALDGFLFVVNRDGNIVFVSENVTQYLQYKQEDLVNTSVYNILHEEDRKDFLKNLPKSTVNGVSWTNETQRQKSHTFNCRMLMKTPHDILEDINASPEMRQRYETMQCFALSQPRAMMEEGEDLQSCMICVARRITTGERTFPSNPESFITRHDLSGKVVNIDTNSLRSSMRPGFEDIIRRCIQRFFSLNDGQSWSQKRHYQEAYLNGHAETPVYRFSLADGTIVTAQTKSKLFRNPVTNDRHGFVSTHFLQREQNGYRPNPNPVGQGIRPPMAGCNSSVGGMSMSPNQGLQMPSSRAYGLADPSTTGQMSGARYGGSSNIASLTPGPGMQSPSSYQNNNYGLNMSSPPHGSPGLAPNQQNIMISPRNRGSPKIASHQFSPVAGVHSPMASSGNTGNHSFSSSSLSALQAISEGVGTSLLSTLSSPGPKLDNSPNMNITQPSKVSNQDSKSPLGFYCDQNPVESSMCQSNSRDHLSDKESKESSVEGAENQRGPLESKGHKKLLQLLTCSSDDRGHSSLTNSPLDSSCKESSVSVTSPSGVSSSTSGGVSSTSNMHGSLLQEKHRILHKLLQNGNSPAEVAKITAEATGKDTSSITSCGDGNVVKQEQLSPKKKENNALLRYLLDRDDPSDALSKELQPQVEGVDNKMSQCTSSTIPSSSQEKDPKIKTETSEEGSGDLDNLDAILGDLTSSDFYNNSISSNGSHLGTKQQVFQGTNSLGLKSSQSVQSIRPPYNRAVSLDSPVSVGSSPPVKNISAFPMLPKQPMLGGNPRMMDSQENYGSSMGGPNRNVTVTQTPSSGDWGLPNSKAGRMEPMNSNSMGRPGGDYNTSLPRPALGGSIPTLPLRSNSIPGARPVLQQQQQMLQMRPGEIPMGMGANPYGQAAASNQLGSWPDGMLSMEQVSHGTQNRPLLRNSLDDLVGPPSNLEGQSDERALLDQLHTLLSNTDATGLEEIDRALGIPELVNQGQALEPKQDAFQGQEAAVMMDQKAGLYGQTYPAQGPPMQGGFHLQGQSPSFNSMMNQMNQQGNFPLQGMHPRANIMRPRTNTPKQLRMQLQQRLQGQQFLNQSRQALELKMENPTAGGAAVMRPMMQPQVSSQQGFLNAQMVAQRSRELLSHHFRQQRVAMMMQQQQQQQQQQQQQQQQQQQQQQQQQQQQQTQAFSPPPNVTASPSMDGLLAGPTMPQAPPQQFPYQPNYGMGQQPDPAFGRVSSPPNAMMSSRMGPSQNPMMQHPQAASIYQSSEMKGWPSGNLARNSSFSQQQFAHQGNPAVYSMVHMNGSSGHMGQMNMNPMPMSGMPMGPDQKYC

[12] = biological target: Peroxisome proliferator-activated receptor gamma/Nuclear receptor coactivator 1 (Homo sapiens, UniProt P37231); test: as §1, with “1 (SRC-1)” for “2 (SRC-2)”, “assays (depositor defined):AID1300, AID1808, AID504735, AID631]” for “assays: 1297, 1032 ]”; assay type: protein assay
Protein Wnt-3a = Protein Wnt-3a (Mus musculus, UniProt P27467); test: Wnt3a-driven reporter signaling inhibition, dose response, selectivity assay for Gli-SUFU antagonist project, Wnt-LIGHT cells, luminescence (AID 651570); assay type: functional; conditions: read-out: IC50_Mean;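 note: Wnt-LIGHT reporter cells stimulated with conditioned medium from Wnt3a-producing cells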
Sequence of Protein Wnt-3a (P27467 whole entry): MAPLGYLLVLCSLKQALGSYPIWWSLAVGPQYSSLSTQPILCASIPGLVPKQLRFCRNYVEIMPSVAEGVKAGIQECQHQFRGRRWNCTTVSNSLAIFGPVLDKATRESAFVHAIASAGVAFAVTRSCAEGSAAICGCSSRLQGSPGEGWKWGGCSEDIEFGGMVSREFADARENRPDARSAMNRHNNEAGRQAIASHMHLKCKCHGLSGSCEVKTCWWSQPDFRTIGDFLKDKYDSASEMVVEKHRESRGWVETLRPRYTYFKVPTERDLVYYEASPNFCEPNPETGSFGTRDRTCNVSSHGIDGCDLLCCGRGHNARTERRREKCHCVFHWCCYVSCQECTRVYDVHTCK

Phosphomannomutase 2 = biological target: T5, Phosphomannomutase 2 (Homo sapiens, UniProt O15305); test: Counter screen SAR assay for PMM2 inhibitors via a fluorescence intensity assay. [Related pubchem assays (depositor defined):AID1545, AID1574]
T5 sequence (O15305 whole entry): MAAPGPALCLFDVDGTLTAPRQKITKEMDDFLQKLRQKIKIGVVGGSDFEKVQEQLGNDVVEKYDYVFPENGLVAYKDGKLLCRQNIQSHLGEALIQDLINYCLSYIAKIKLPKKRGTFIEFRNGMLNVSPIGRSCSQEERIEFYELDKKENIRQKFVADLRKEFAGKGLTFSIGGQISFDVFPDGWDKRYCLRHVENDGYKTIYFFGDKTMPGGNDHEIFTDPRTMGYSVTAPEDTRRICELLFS

[13] = biological target: T6, Mannose-6-phosphate isomerase (Homo sapiens, UniProt P34949); test: PMI enzyme inhibitors, confirmation, biochemical, fluorescence intensity (AID 1535)
T6 sequence (P34949 whole entry): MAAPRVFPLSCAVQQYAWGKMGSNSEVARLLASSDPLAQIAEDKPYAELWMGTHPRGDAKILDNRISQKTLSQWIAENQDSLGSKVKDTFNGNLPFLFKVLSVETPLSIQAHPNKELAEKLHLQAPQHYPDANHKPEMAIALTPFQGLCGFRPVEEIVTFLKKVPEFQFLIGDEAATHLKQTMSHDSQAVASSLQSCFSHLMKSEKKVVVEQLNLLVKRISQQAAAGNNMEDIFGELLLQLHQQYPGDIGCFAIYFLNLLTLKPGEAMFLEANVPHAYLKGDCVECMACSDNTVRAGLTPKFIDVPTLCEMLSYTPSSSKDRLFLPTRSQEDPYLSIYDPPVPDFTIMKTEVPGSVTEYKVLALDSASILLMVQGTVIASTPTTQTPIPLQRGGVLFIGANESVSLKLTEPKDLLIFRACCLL

Cytochrome P450 3A4 [14] = biological target: T2, Cytochrome P450 3A4; remark: listed apart in the source
Cytochrome P450 1A2 = biological target: T7, Cytochrome P450 1A2 (Homo sapiens, UniProt P05177);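 note: PubChem cytochrome P450 panel assay, CYP1A2 panel member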
T7 sequence (P05177 whole entry): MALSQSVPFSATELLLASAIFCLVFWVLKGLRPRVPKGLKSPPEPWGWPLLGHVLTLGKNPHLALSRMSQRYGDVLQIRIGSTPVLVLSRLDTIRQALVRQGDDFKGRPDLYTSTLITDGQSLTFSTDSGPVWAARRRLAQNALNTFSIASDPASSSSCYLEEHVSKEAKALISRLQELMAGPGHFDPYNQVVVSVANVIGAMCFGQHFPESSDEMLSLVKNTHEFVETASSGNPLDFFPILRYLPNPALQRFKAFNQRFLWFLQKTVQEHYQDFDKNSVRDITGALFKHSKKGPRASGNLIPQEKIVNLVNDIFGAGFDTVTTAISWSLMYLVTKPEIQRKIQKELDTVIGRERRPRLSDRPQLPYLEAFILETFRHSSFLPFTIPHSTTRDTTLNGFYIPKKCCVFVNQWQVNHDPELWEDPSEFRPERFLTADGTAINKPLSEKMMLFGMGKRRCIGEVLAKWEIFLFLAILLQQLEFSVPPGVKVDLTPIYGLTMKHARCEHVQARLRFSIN

Cytochrome P450 2C19 = Cytochrome P450 2C19 (Homo sapiens, UniProt P33261); test: Cytochrome panel assay with activity outcomes. Panel member name: p450-cyp2c19 Compounds with AC50 equal or less than 10 uM are considered active; assay type: functional

SMILES: COC(=O)COc1ccc2c(=O)c(Oc3ccccc3)c(C)oc2c1
- Ki (fMet-Leu-Phe receptor): > 66.7 µM (inactive)
- IC50 (cells): 2.94 µM (active)

SMILES: CCOc1cccc(C(=O)C2=C(O)C(=O)N(CCOC)C2c2ccc(C)o2)c1 (stereo not drawn)
- Ki (fMet-Leu-Phe receptor): 13.5 µM (active)

SMILES: CC(=O)Nc1ccc(/C=N/Nc2nc3ccccc3[nH]2)cc1
- EC50 (BJ [1]): > 150 µM (not active)
- EC50 (BJ [2]): 5.82 µM (active)
- EC50 (BJ [3]): > 150 µM (inconclusive)
- EC50 (BJ [4]): > 133 µM (inactive)
- EC50 [5]: > 150 µM (inconclusive)

SMILES: CC(C)(C)c1ccc(-c2c(C#N)c(N)nc3c2CCCC3)s1
- AC50 (Cytochrome P450 2C9): 7.08 µM (inconclusive)
- AC50 (Cytochrome P450 3A4 [6]): inconclusive

SMILES: NC(=O)c1cn(S(=O)(=O)c2ccc3ccccc3c2)c2ccccc12
- IC50 [7]: > 100 µM (inactive)
- IC50 [8]: > 100 µM (not active)

SMILES: COc1cc(OC)c(C2=NOC(C(=O)NCc3cccs3)C2)cc1Cl (stereo not drawn)
- EC50 (BJ [1]): > 150 µM (not active)
- EC50 (BJ [2]): 63.7 µM (active)
- EC50 (BJ [3]): 32 µM (active)
- EC50 (BJ [4]): 108 µM (active)
- EC50 [5]: 17.7 µM (inconclusive)

SMILES: O=C(c1cnc(-c2ccccc2)s1)c1ccc(Cl)cc1Cl
- EC50 (Streptokinase A): 33.7 µM (active)
- EC50 (Streptococcus): > 150 µM (not active)
- AC50 (Cytochrome P450 2D6): 22.4 µM (inconclusive)
- EC50 [9]: 16.2 µM (active)
- AC50 (Cytochrome P450 3A4 [6]): inconclusive

SMILES: COC(=O)c1c(C)[nH]c(C(=O)C(C)Sc2nnc(-c3cc(OC)c(OC)c(OC)c3)o2)c1C (stereo not drawn)
- EC50 [10]: > 79.4 µM (not active)
- EC50 [11]: > 79.4 µM (not active)
- EC50 [12]: > 79.4 µM (inactive)

SMILES: CCOC(=O)N1CCN(C(=O)c2ccc(CSc3ccc(Cl)cc3)cc2)CC1
- IC50 (Protein Wnt-3a): 15.6 µM (active)

SMILES: COc1cc(N=c2ssnc2Cl)cc(OC)c1
- IC50 (Phosphomannomutase 2): > 100 µM (inactive)
- IC50 [13]: 17.2 µM (active)

SMILES: COc1cccc(-c2cc(C(=O)O)[nH]n2)c1
- IC50 [7]: > 100 µM (inactive)
- IC50 [8]: > 100 µM (not active)

SMILES: COc1ccc(NC(=O)CSc2c3c(nc4ccccc24)CCCC3)c(OC)c1
- EC50 [10]: 35.4 µM (not active)
- EC50 [11]: > 79.4 µM (not active)
- EC50 [12]: > 79.4 µM (inactive)

SMILES: CCS(=O)(=O)N(C)[C@@H]1c2cc(C#N)ccc2OC(C)(C)[C@H]1O
- AC50 (Cytochrome P450 3A4 [14]): 15.8 µM (inconclusive)
- AC50 (Cytochrome P450 3A4 [6]): 15.8 µM (inconclusive)

SMILES: CN1CCN(c2ncc3nc(-c4ccc(Cl)cc4)c(=O)n(Cc4ccc(F)cc4)c3n2)CC1
- AC50 (Cytochrome P450 2D6): 39.8 µM (inconclusive)
- AC50 (Cytochrome P450 1A2): 31.6 µM (inconclusive)
- AC50 (Cytochrome P450 3A4 [6]): inconclusive

SMILES: CC(C)C[C@H]1CN=C(N(C)C)N1CCCCc1ccccc1
- IC50 (Protein Wnt-3a): 11.7 µM (active)

SMILES: O=C(N[C@@H]1C/C=C\C[C@@H](CC(=O)N(CCO)Cc2ccccc2)C(=O)NCCOC1=O)OCC1c2ccccc2-c2ccccc21
- IC50 (Protein Wnt-3a): 24.2 µM (inactive)

SMILES: Cc1nnc(/N=c2\ssnc2Cl)o1
- IC50 (Phosphomannomutase 2): > 100 µM (inactive)
- IC50 [13]: 1.07 µM (active)

SMILES: CC(=O)c1sc(NC(=O)C(C)C)nc1C
- EC50 [10]: > 26.5 µM (not active)
- AC50 (Cytochrome P450 2C19): inconclusive
- AC50 (Cytochrome P450 2C9): 39.8 µM (inconclusive)
- EC50 [11]: > 79.4 µM (not active)
- EC50 [12]: > 79.4 µM (inactive)

SMILES: O=C(Nc1ccccc1)N1CCC2(CC1)CCN(C(=O)Oc1ccccc1)CC2
- AC50 (Cytochrome P450 3A4 [6]): inconclusive
